The values below come from patent US20240009269A1 (priority 2020, published 2024).

No end group written: not given here.

The subject of data set [1] is tissue-engineered dhBMECs microvessels. As to the kind of experiment: BBB opening in tissue-engineered BBB microvessels (500 kDa dextran leakage). Type of data set: cell-based, human. Here is the method: Three-dimensional blood-brain barrier microvessels were fabricated as previously reported (FIGS. 10A and 10B) [Linville, R. M., et al., Biomaterials, 2019. 190-191: p. 24-37] 150 μm diameter and 1 cm long channels were patterned in 7 mg mL^−1 type I collagen (Corning) using nitinol wire (Malin Co.) housed within polydimethylsiloxane (PDMS; Dow Corning). Channels were cross-linked by incubation in 20 mM genipin (Wako Biosciences) for 2 hours to increase cell adhesion. 2dhBMECs were suspended in BBB induction medium at a concentration of 5×10^6 cells mL^−1 and seeded into channels. Microvessels were perfused using BBB induction medium for 24 hours and then switched to BBB maintenance medium. During cell seeding and the first day of perfusion, 10 μM ROCK inhibitor Y27632 (ATCC) was supplemented to increase adhesion. An average shear stress of ˜2 dyn cm^−2 was maintained with a reservoir height difference (Δh) of 3 cm, corresponding to a volumetric flow rate of ˜250 μL h^−1 (FIG. 11D). This shear stress was estimated from the Poiseuille equation: τ=μQ)/2πd3 where μ is the media dynamic viscosity, Q is the volumetric flow rate, and d is the microvessel diameter.
Live-cell imaging was conducted to study dynamic changes in in vitro BBB permeability and microvessel structure. Microvessels were imaged using a 10×objective equipped on an inverted microscope (Nikon Eclipse TiE) maintained at 37° C. and 5% CO2 (FIG. S2C). Epifluorescence illumination was provided by an X-Cite 120LEDBoost (Excelitas Technologies). Phase contrast and fluorescence images were acquired every two minutes with the focal plane set to the microvessel midplane. The entire image collected consists of ten adjacent imaging frames. […] A dextran solute panel comprised of 200 μM Cascade Blue-conjugated 3 kDa dextran (Cat. No. D7132. Thermo Fisher Scientific), 16 μM Alexa Fluor647-conjugated 10 kDa dextran (Cat. No. D22914, Thermo Fisher Scientific), and 1.2 μM fluorescein-conjugated 500 kDa dextran (Cat. No. D7136, Thermo Fisher Scientific) was prepared in BBB maintenance medium. Fluorophores were independently excited and the respective emissions were collected using: Nikon UV-2E/C for 3 kDa dextran (50 ms exposure), Chroma 41008 for 10 kDa dextran (20 ms exposure), and Nikon B-2E/C for 500 kDa dextran (50 ms exposure).
Image processing was performed using ImageJ (NIH) to quantify BBB opening (FIGS. 11A-11D). First, images were cropped to a standard size of 6 mm×0.6 mm. To determine the spatial heterogeneity of BBB permeability, microvessels were sectioned into 10 regions of interest (ROIs), each a 0.6 mm×0.6 mm square (FIG. 11A). For each ROI, the integrated pixel density was plotted over time (FIG. 11A). The permeability (cm s^−1) was calculated using P=(r/2)(1/ΔI)(dI/dt), where r is the vessel radius, ΔI is the increase in fluorescence intensity upon perfusion of the fluorophore, and (dI/dt) is the rate of increase in fluorescence intensity as solute exits into the gel. […] To visually display permeability dynamics, heatmaps were generated from 90 instantaneous permeability values across the 10 ROIs (x-axis) and nine 10-minute periods (y-axis). […] 28(1): p. 41-51 in ImageJ (FIG. 11B). Under baseline conditions, thresholding results in the lumen designated as white (1) and extracellular matrix (ECM) as black (0). […] From binarized images, individual focal leaks were manually counted over time. Leaks emerging from the sides of the image frame were not counted. To quantify the duration of a BBB opening effect, we identified the time at which the last focal leak appeared and termed the focal leak reversibility time constant (τfocal leaks).

For data set [2], the system named is mouse brain (blood-brain barrier). The settings on record: mouse, in vivo. The text has this:
Briefly, male C57BL/6J mice (n=43, 6-8 weeks old, 20-25 g, Jackson Laboratory) were anesthetized with 2% isoflurane. The common carotid artery (CCA) bifurcation was exposed and the occipital artery branching off from the external carotid artery (ECA) was coagulated. The ECA and the pterygopalatine artery (PPA) were temporarily ligated with 4-0 silk sutures. A temporary ligature using a 4-0 suture was placed on the carotid bifurcation and the proximal CCA was permanently ligated. A microcatheter (PE-8-100, SAI Infusion Technologies) was flushed with 2% heparin (1,000 U mL^−1, heparin sodium, Upjohn), inserted into the CCA via a small arteriotomy, and advanced into the internal carotid artery (ICA).
For each animal, 150 μL of solution was infused at a rate of 150 μL minute^−1. […] The brains were harvested immediately after Evans Blue injection, sectioned in brain slicer matrix (Zivic Instruments) to produce 1 mm slabs.
Animal anesthesia was maintained at 1.5-2% during the MRI scan. Mice were placed on a water-heated animal bed equipped with temperature and respiratory control. Respiration was monitored and maintained at 30-60 minutes^−1. All MRI experiments were performed on a Bruker 11.7T MRI scanner. Baseline T2 (TR/TE=2,500/30 ms), susceptibility-weighted imaging (SWI) (TR/TE=378/8 ms), T1 (TR/TE 350/6.7 ms)-weighted, dynamic gradient echo echo-planar imaging (GE-EPI, TR/TE 1250/9.7 ms, field of view (FOV)=14×14 mm, matrix=128×128, acquisition time=60 s and 24 repetitions) and dynamic T1 imaging (TR/TE 2000/3. 5ms, field of view=14×14 mm, acquisition time=8 seconds and 20 repetitions) images of the brain were acquired. The microcatheter was connected to a syringe mounted on an MRI compatible programmable syringe pump (PHD 2000, Harvard Apparatus Inc.). Gadolinium (Gd; Prohance) dissolved in saline at 1:50 was infused intra-arterially at the rate of 150 μL minute^−1 under dynamic GE-EPI MRI for visualization of perfusion territory. […] To quantify BBB status, T1 intensities in cortex, hippocampus and thalamus/hypothalamus were compared between ipsilateral and contralateral hemispheres. T1 hyperintensity was corrected for possible asymmetry using pre-contrast T1 images and normalized as the ratio of ipsilateral to contralateral intensity. Additionally, the area of BBBO (mm^2) was calculated by conversion of T1 images to binary using the Auto Threshold function (plugin v1.17; Maximum Entropy method) [Kapur, J. N., P. K. Sahoo, and A. K. C. Wong, Computer Vision, Graphics, and Image Processing, 1985, 29(3): p. 273-285] in ImageJ. T2-weighted and SWI images were acquired at the same timepoints for detection of brain damage and microhemorrhage. Subsequently, animals were sacrificed for further histological assessment.
To determine the area and region of perfusion territory, we first calculated the contrast enhancement maps at the time where contrast enhancement was at its maximum. As Gd causes negative contrast under T2 imaging, we calculated the contrast enhancement as (SIpre-SIpost)/SIpre, where SI is the signal intensity of an MR image. Histogram was plotted for all pixels in the brain region in a contrast enhancement map and further fitted into two Gaussian distributions, assuming there were two dominant populations for non-contrast enhanced and contrast-enhanced pixels, respectively. The cutoff value to separate the two populations was then determined. The fraction of contrast enhanced areas was calculated by the ratio of the number of pixels, whose values are larger than the cutoff value, to the total number of pixels in the brain. A similar method was used to determine the BBBO territory.

For data set [3] the following is noted: cited from earlier work.
Another data set concerns blood-brain barrier. The following applies: cited from earlier work.
Setting [4] is: 25, 50, and 100 μM·minute doses.

On to “RVGALKQTAIPVKSLIWGRQLIGLKT-NH2 [Mel-Scramble, reference compound]”, for which, in data set [1] (setting [4]), the BBBO entry is “did not induce BBBO”, the “change in the permeability of 500 kDa dextran following perfusion” value was “no change” and the “focal leaks during or 24 hours after perfusion” value is recorded as “no focal leaks were observed”.
Take `OC[C@@H](O)[C@@H](O)[C@H](O)[C@H](O)CO` [mannitol]: the “extent of BBBO compared with 3 μM·minute melittin” value in data set [2] is on record as “similar”. Further, the solubility limit result in data set [3] is given as “around 1.4 M”. Further, the “concentration above which BBBO is induced” value with blood-brain barrier is listed as over 1.1 M.
Turning to “GIGAVLKVLTTGLPALISWIKRKRQQ-NH2 [melittin-CONH2]”, in data set [1] (compared across four variants), the “slope of focal leak reversibility versus dose” value is “highest slope”.
